In ChEMBL document CHEMBL3046918, “Conventional and microwave-assisted synthesis of imidazole and guanidine derivatives and their biological evaluation” (2011):
Where a name gives a salt, the structure may show the parent alone.

Columns and labels:
Type in all cases: functional
SF-295 = assay: Growth inhibition of Homo sapiens (human) SF295 cells at 10^-5 M after 48 hr by SRB assay; conditions: SF-295, 48 h, read-out: GI
PC-3 = assay: Growth inhibition of Homo sapiens (human) PC3 cells at 10^-5 M after 48 hr by SRB assay; conditions: PC-3, 48 h, read-out: GI
MCF7 = assay: Growth inhibition of Homo sapiens (human) MCF7 cells at 10^-5 M after 48 hr by SRB assay; conditions: MCF7, 48 h, read-out: GI
HOP-62 = assay: Growth inhibition of Homo sapiens (human) HOP62 cells at 10^-5 M after 48 hr by SRB assay; conditions: HOP-62, 48 h, read-out: GI
IGROV-1 = assay: Growth inhibition of Homo sapiens (human) IGROV1 cells at 10^-5 M after 48 hr by SRB assay; conditions: IGROV-1, 48 h, read-out: GI
A549 = assay: Growth inhibition of Homo sapiens (human) A549 cells at 10^-5 M after 48 hr by SRB assay; conditions: A549, 48 h, read-out: GI
Rattus norvegicus = assay: Anti-inflammatory activity in Rattus norvegicus Charles Foster albino (rat) assessed as inhibition of carrageenan-induced paw edema at 50 mg/kg, po administered 30 min prior to carrageenan-challenge measured up to 3 hr relative to control; design: scale not given: the % may be the effect or the level left

SMILES | inhibition of growth at 10 µM (SF-295) [%] | inhibition of growth at 10 µM (PC-3) [%] | inhibition of growth at 10 µM (MCF7) [%] | inhibition of growth at 10 µM (HOP-62) [%] | inhibition of growth at 10 µM (IGROV-1) [%] | inhibition of growth at 10 µM (A549) [%] | Activity (Rattus norvegicus) [%]
Cn1cccc1-c1nc2cc3nc4ccccc4nc3cc2[nH]1 | 40 | 43 | 41 | 12 | 26 | 36 | 14
c1ccc2c(-c3nc4cc5nc6ccccc6nc5cc4[nH]3)cccc2c1 | 100 | 97 | 88 | 98 | 92 | 97 | 19
N=C(/N=C\c1ccc2ccccc2c1)Nc1nc2ccccc2[nH]1 | 42 | 10 | 6 | 18 | 26 | 8 | 26
CC(=O)O[C@H]1C(=O)[C@@]2(C)[C@H]([C@H](OC(=O)c3ccccc3)[C@]3(O)C[C@H](OC(=O)[C@H](O)[C@@H](NC(=O)c4ccccc4)c4ccccc4)C(C)=C1C3(C)C)[C@]1(OC(C)=O)CO[C@@H]1C[C@@H]2O [PACLITAXEL] |  |  |  | 37 | 37 | 54 | 
Cc1ccc(-c2nc3ccc4c(c3[nH]2)C(=O)c2ccccc2C4=O)s1 | 43 | 14 | 47 | 6 | 8 | 35 | 26
c1ccc2cc(-c3nc4cc5nc6ccccc6nc5cc4[nH]3)ccc2c1 | 20 | 22 | 29 | 9 | 19 | 26 | 28
COc1cccc2c1C(=O)c1c(O)c3c(c(O)c1C2=O)C[C@@](O)(C(=O)CO)C[C@@H]3O[C@H]1C[C@H](N)[C@H](O)[C@H](C)O1 [DOXORUBICIN HYDROCHLORIDE] | 69 |  | 72 | 32 | 39 | 27 | 
Oc1ccc2ccccc2c1-c1nc2cc3nc4ccccc4nc3cc2[nH]1 | 97 | 81 | 84 | 90 | 84 | 87 | 30
Cn1cccc1/C=N/C(=N)Nc1nc2ccccc2[nH]1 | 40 | 1 | 24 | 28 | 23 | 12 | 0
O=C1c2ccccc2C(=O)c2c1ccc1nc(-c3c(O)ccc4ccccc34)[nH]c21 | 92 | 87 | 61 | 78 | 82 | 97 | 22
Cc1ccsc1-c1nc2ccc3c(c2[nH]1)C(=O)c1ccccc1C3=O | 30 | 16 | 36 | 19 | 6 | 15 | 16
Cc1ccsc1/C=N\C(=N)Nc1nc2ccccc2[nH]1 | 40 | 10 | 9 | 13 | 17 | 3 | 38
N=C(/N=C/c1c(O)ccc2ccccc12)Nc1nc2ccccc2[nH]1 | 34 | 15 | 4 | 9 | 23 | 2 | 0
CO[C@@]12[C@H](COC(N)=O)C3=C(C(=O)C(C)=C(N)C3=O)N1C[C@@H]1N[C@@H]12 [MITOMYCIN] | 43 | 61 |  |  | 47 |  | 
N=C(/N=C/c1cccc2ccccc12)Nc1nc2ccccc2[nH]1 | 40 | 13 | 25 | 26 | 13 | 9 | 34
Cn1cccc1-c1nc2ccc3c(c2[nH]1)C(=O)c1ccccc1C3=O | 52 | 28 | 72 | 11 | 27 | 31 | 34
O=C1c2ccccc2C(=O)c2c1ccc1nc(-c3ccc4ccccc4c3)[nH]c21 | 34 | 15 | 26 | 9 | 9 | 2 | 35
Cc1ccsc1-c1nc2cc3nc4ccccc4nc3cc2[nH]1 | 28 | 12 | 17 | 4 | 30 | 27 | 38
O=C1c2ccccc2C(=O)c2c1ccc1nc(-c3cccc4ccccc34)[nH]c21 | 81 | 71 | 76 | 61 | 71 | 93 | 14
Cc1ccc(/C=N\C(=N)Nc2nc3ccccc3[nH]2)s1 | 36 | 8 | 0 | 14 | 20 | 13 | 24
Cc1ccc(-c2nc3cc4nc5ccccc5nc4cc3[nH]2)s1 | 32 | 29 | 56 | 20 | 18 | 53 | 10
